Experimental data taken from patent US6274715A, “Tricyclic erythromycin derivatives” (priority 1997, dated 2001).
In brackets after ≈: the same amount, converted by molar mass.

Assays:
Assay type in all cases: cell-based
[1] = test system: STAPHYLOCOCCUS AUREUS ATCC 6538P; assay: In vitro antibacterial activity, MIC, BHI agar dilution; conditions: S. aureus ATCC 6538P, 35-37° C., 20 to 24 hours, unit assumed
[2] = test system: STAPHYLOCOCCUS AUREUS A5177; assay: as above; conditions: S. aureus A5177, unit assumed
[3] = test system: STAPHYLOCOCCUS AUREUS A-5278; assay: as above; conditions: S. aureus A-5278, unit assumed
[4] = test system: STAPHYLOCOCCUS AUREUS CMX 642A; assay: as above; conditions: S. aureus CMX 642A, unit assumed
[5] = test system: STAPHYLOCOCCUS AUREUS NCTC10649M; assay: as above; conditions: S. aureus NCTC10649M, unit assumed
[6] = test system: STAPHYLOCOCCUS AUREUS CMX 553; assay: as above; conditions: S. aureus CMX 553, unit assumed
[7] = test system: STAPHYLOCOCCUS AUREUS 1775; assay: as above; conditions: S. aureus 1775, unit assumed
[8] = test system: EN[…] ATCC 8043; assay: as above; conditions: E. faecium ATCC 8043, unit assumed
Method in brief: (§1)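 BHI agar dilution: twelve plates with successive compound dilutions, inoculated by replicator with 1:100 culture dilutions (1:10 for slow growers such as Micrococcus and Streptococcus), 20 to 24 hours at 35-37° C. MIC was the lowest concentration giving no growth, slight haze or sparse isolated colonies versus drug-free control; erythromycin A as class reference.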

[9] = test system: M[…] ATCC 4698; assay: as above; conditions: M. luteus ATCC 4698, unit assumed
Method in brief: as §1

[10] = test system: M[…] ATCC 9341; assay: as above; conditions: M. luteus ATCC 9341, unit assumed
Method in brief: as §1

[11] = test system: STR[…] 508; assay: as above; conditions: S. agalactiae CMX 508, unit assumed
Method in brief: as §1

[12] = test system: STREPTOCOCCUS BOVIS A-5169; assay: as above; conditions: S. bovis A-5169, unit assumed
[13] = test system: STREPTOCOCCUS PYOGENES EES61; assay: as above; conditions: S. pyogenes EES61, unit assumed
[14] = test system: STREPTOCOCCUS PYOGENES 930; assay: as above; conditions: S. pyogenes 930, unit assumed
[15] = test system: STREPTOCOCCUS PYOGENES PIU 2548; assay: as above; conditions: S. pyogenes PIU 2548, unit assumed
[16] = test system: ESCHERICHIA COLI JUHL; conditions: E. coli JUHL; BHI agar; unit assumed
[17] = test system: ESCHERICHIA COLI SS; assay: In vitro antibacterial activity, MIC, BHI agar dilution; conditions: E. coli SS, unit assumed
[18] = test system: ESCHERICHIA COLI DC-2; assay: as above; conditions: E. coli DC-2, unit assumed
[19] = test system: ESCHERICHIA COLI H560; assay: as above; conditions: E. coli H560, unit assumed
[20] = test system: ESCHERICHIA COLI KNK 437; conditions: E. coli KNK 437; BHI agar; unit assumed
[21] = test system: KLEBSIELLA PNEUMONIAE ATCC 8045; assay: In vitro antibacterial activity, MIC, BHI agar dilution; conditions: K. pneumoniae ATCC 8045, unit assumed
[22] = test system: PROVIDENCIA STUARTII CMX 640; conditions: P. stuartii CMX 640; BHI agar; unit assumed
[23] = test system: PSEUDOMONAS AERUGINOSA BMH10; assay: In vitro antibacterial activity, MIC, BHI agar dilution; conditions: P. aeruginosa BMH10, unit assumed
[24] = test system: PSEUDOMONAS AERUGINOSA 5007; assay: as above; conditions: P. aeruginosa 5007, unit assumed
[25] = test system: PSEUDOMONAS AERUGINOSA K799/61; assay: as above; conditions: P. aeruginosa K799/61, unit assumed
[26] = test system: PSEUDOMONAS CEPACIA 296I; assay: as above; conditions: P. cepacia 296I, unit assumed
[27] = test system: PSEUDOMONAS AERUGINOSA DPHD-5263; assay: as above; conditions: P. aeruginosa DPHD-5263, unit assumed
[28] = test system: PSEUDOMONAS AERUGINOSA DPHD-2862; assay: as above; conditions: P. aeruginosa DPHD-2862, unit assumed
[29] = test system: CANDIDA ALBICANS CCH 442; assay: as above; conditions: C. albicans CCH 442, unit assumed
[30] = test system: MYCOBACTERIUM SMEGMATIS ATCC 114; assay: as above; conditions: M. smegmatis ATCC 114, unit assumed
[31] = test system: H. Influenza Dill AMP R; assay: In vitro antibacterial activity against H. Influenza Dill AMP R, MIC; conditions: separate assay, unit assumed
Experimental: Representative compounds of the present invention were assayed in vitro for antibacterial activity as follows: Twelve petri dishes containing successive aqueous dilutions of the test compound mixed with 10 mL of sterilized Brain Heart Infusion (BHI) agar (Difco 0418-01-5) were prepared. Each plate was inoculated with 1:100 (or 1:10 for slow-growing strains, such as Micrococcus and Streptococcus) dilutions of up to 32 different microorganisms, using a Steers replicator block. The inoculated plates were incubated at 35-37° C. for 20 to 24 hours. In addition, a control plate, using BHI agar containing no test compound, was prepared and incubated at the beginning and end of each test.
After incubation, each plate was visually inspected. The minimum inhibitory concentration (MIC) was defmed as the lowest concentration of drug yielding no growth, a slight haze, or sparsely isolated colonies on the inoculum spot as compared to the growth control.
In a separate assay representative compounds of the invention were assayed in vitro for antibacterial activity against the H. Influenza Dill AMP R strain, according to the protocol described above.

[32] = test system: STAPHYLOCOCCUS EPIDERMIDIS 3519; conditions: S. epidermidis 3519; BHI agar; unit assumed
[33] = test system: ENTEROBACTER AEROGENES ATCC 13048; assay: In vitro antibacterial activity, MIC, BHI agar dilution; conditions: E. aerogenes ATCC 13048, unit assumed
[34] = test system: PSEUDOMONAS AERUGINOSA K799/WT; assay: as above; conditions: P. aeruginosa K799/WT, unit assumed

SMILES	MIC [1]	MIC [2]	MIC [3]	MIC [4]	MIC [5]	MIC [6]	MIC [7]	MIC [8]	MIC [9]	MIC [10]	MIC [11]	MIC [12]	MIC [13]	MIC [14]	MIC [15]	MIC [16]	MIC [17]	MIC [18]	MIC [19]	MIC [20]	also measured
CC[C@H]1OC(=O)[C@H](C)C(=O)[C@H](C)[C@@H](O[C@@H]2O[C@H](C)C[C@H](N(C)C)[C@H]2O)[C@](C)(OC)C[C@@H](C)C2=NC[C@H](COCc3ccccc3)N3C(=O)O[C@@]1(C)[C@H]3[C@H]2C [Example 41]	0.05 µg/mL (≈ 0.066 µM)	0.05 µg/mL (≈ 0.066 µM)	> 100 µg/mL	0.05 µg/mL (≈ 0.066 µM)	0.05 µg/mL (≈ 0.066 µM)	0.05 µg/mL (≈ 0.066 µM)	> 100 µg/mL	0.02 µg/mL (≈ 0.0264 µM)	0.1 µg/mL (≈ 0.132 µM)	0.01 µg/mL (≈ 0.0132 µM)	0.02 µg/mL (≈ 0.0264 µM)	≤ 0.005 µg/mL	0.01 µg/mL (≈ 0.0132 µM)	> 100 µg/mL	0.2 µg/mL (≈ 0.264 µM)	6.2 µg/mL (≈ 8.18 µM)	0.2 µg/mL (≈ 0.264 µM)	3.1 µg/mL (≈ 4.09 µM)	1.56 µg/mL (≈ 2.06 µM)	6.2 µg/mL (≈ 8.18 µM)	MIC [21]: 25 µg/mL (≈ 33 µM); MIC [22]: 50 µg/mL (≈ 66 µM); MIC [23]: 50 µg/mL (≈ 66 µM); MIC [24]: 50 µg/mL (≈ 66 µM); MIC [25]: 0.2 µg/mL (≈ 0.264 µM); MIC [26]: 12.5 µg/mL (≈ 16.5 µM); MIC [27]: 12.5 µg/mL (≈ 16.5 µM); MIC [28]: 50 µg/mL (≈ 66 µM); MIC [29]: > 100 µg/mL; MIC [30]: 0.2 µg/mL (≈ 0.264 µM); MIC [31]: 2 µg/mL (≈ 2.64 µM)
CC[C@H]1OC(=O)[C@H](C)C(=O)[C@H](C)[C@@H](O[C@@H]2O[C@H](C)C[C@H](N(C)C)[C@H]2O)[C@](C)(OC)C[C@@H](C)C2=NCC(COC(=O)c3ccccc3)N3C(=O)O[C@@]1(C)[C@H]3[C@H]2C (some centres unmarked) [Example 139]	0.1 µg/mL (≈ 0.13 µM)	0.1 µg/mL (≈ 0.13 µM)	> 100 µg/mL	0.1 µg/mL (≈ 0.13 µM)	0.1 µg/mL (≈ 0.13 µM)	0.1 µg/mL (≈ 0.13 µM)	> 100 µg/mL	0.02 µg/mL (≈ 0.0259 µM)	0.2 µg/mL (≈ 0.259 µM)	0.05 µg/mL (≈ 0.0648 µM)	0.02 µg/mL (≈ 0.0259 µM)	≤ 0.005 µg/mL	0.01 µg/mL (≈ 0.013 µM)	25 µg/mL (≈ 32.4 µM)	0.39 µg/mL (≈ 0.505 µM)	25 µg/mL (≈ 32.4 µM)	0.39 µg/mL (≈ 0.505 µM)	25 µg/mL (≈ 32.4 µM)	25 µg/mL (≈ 32.4 µM)	50 µg/mL (≈ 64.8 µM)	MIC [32]: 0.1 µg/mL (≈ 0.13 µM); MIC [33]: 100 µg/mL (≈ 130 µM); MIC [21]: 100 µg/mL (≈ 130 µM); MIC [22]: > 100 µg/mL; MIC [23]: > 100 µg/mL; MIC [24]: > 100 µg/mL; MIC [34]: 100 µg/mL (≈ 130 µM); MIC [25]: 0.39 µg/mL (≈ 0.505 µM); MIC [26]: 25 µg/mL (≈ 32.4 µM); MIC [27]: > 100 µg/mL; MIC [28]: 100 µg/mL (≈ 130 µM); MIC [29]: > 100 µg/mL; MIC [30]: 0.78 µg/mL (≈ 1.01 µM); MIC [31]: 2 µg/mL (≈ 2.59 µM)
